Laboratory results as given in PubChem BioAssay (NCI).
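Step 1: Grow cells in 96-well plates. Step 2: Expose to compound for 48 hours at 5 concentrations. Step 3: Interpolate endpoints linearly; if unreached, use highest concentration. GI50 marks 50% less growth. TGI denotes the concentration required for complete inhibition of growth.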

Legend:
Test in all cases: DTP human tumour cell line panel, 48 h
NCI/ADR-RES ovarian = test system: NCI/ADR-RES ovarian
OVCAR-5 ovarian = test system: OVCAR-5 ovarian
SW-620 colon = test system: SW-620 colon
NCI-H460 lung = test system: NCI-H460 lung
ACHN renal = test system: ACHN renal
MCF7 breast = test system: MCF7 breast
LOX IMVI melanoma = test system: LOX IMVI melanoma
U251 CNS = test system: U251 CNS
RPMI-8226 leukemia = test system: RPMI-8226 leukemia

Structure (SMILES)	TGI (NCI/ADR-RES ovarian) [µM]	TGI (OVCAR-5 ovarian) [µM]	TGI (SW-620 colon) [µM]	TGI (NCI-H460 lung) [µM]	TGI (ACHN renal) [µM]	TGI (MCF7 breast) [µM]	TGI (LOX IMVI melanoma) [µM]	TGI (U251 CNS) [µM]	TGI (RPMI-8226 leukemia) [µM]	GI50 (OVCAR-5 ovarian) [µM]	GI50 (RPMI-8226 leukemia) [µM]	GI50 (SW-620 colon) [µM]	GI50 (NCI-H460 lung) [µM]	GI50 (ACHN renal) [µM]	GI50 (LOX IMVI melanoma) [µM]	GI50 (U251 CNS) [µM]	GI50 (NCI/ADR-RES ovarian) [µM]	GI50 (MCF7 breast) [µM]
C/C=C/C/C=C/CCC(=O)C1OC1C(N)=O (stereo not given)	50.1	32.8	42.3	25.4	28.5	30.6	26.6	30.7	–	–	–	–	–	–	–	–	–	–
N#Cc1c(C(N)=O)ncn1Cc1ccccc1	–	> 100	> 100	> 100	> 100	–	> 100	> 100	> 100	–	–	–	–	–	–	–	–	–
O=C1CC(c2ccccc2)NCN1 (stereo not given)	–	> 100	> 100	–	> 100	–	> 100	> 100	> 100	–	–	–	–	–	–	–	–	–
CCC12CC[C@H](C#N)N3CCc4c(n(c5ccccc45)C(=O)C1)C32 (stereo not given in full)	–	38.5	51.7	33.8	–	–	27.3	29.8	48.9	–	–	–	–	–	–	–	–	–
NC1=NN(c2ccccc2)C(=O)C1C(=O)C(=O)Nc1cccc(C(F)(F)F)c1 (stereo not given)	–	> 100	> 100	> 100	> 100	–	> 100	> 100	> 100	–	–	–	–	–	–	–	–	–
O=C(O/N=C1/CCC/C1=C\c1ccccc1)c1ccccc1	–	> 100	> 100	–	> 100	–	> 100	> 100	> 100	–	–	–	–	–	–	–	–	–
O[C@H]1[C@H]2[C@H](O)CCCN2C[C@H]1O	–	> 100	> 100	> 100	> 100	–	> 100	> 100	> 100	–	–	–	–	–	–	–	–	–
CC(=O)[CH-]C(C)=O.CC(=O)[CH-]C(C)=O.CC(=O)[CH-]C(C)=O.[Cl-].[Hf+4]	–	> 100	> 100	> 100	> 100	–	> 100	> 100	> 100	> 100	> 100	> 100	> 100	> 100	> 100	> 100	–	–
C/C(=N\[N+](C)(C)C)C(c1ccccc1)C1(c2ccccc2)C(c2ccccc2)=C1c1ccccc1 (stereo not given)	–	> 100	> 100	> 100	> 100	–	> 100	> 100	> 100	–	–	–	–	–	–	–	–	–
Cn1cc(C(=O)/C(Cl)=C(\Cl)C(=O)O)c2ccccc21	–	> 100	> 100	> 100	> 100	–	–	> 100	> 100	–	–	–	–	–	–	–	–	–
COc1ccc(C(=O)O)c2c(=O)c3ccccc3[nH]c12	–	> 100	> 100	> 100	> 100	–	> 100	> 100	> 100	–	–	–	–	–	–	–	–	–
CO/C=C/c1cc2c(cc1C(OC)OC)OCO2	–	> 100	> 100	> 100	> 100	–	–	> 100	–	–	–	–	–	–	–	–	–	–
N#Cc1c(SCc2ccccc2)nc2[nH]c(=S)[nH]c(=S)c2c1-c1ccco1	> 100	> 100	> 100	> 100	> 100	> 100	> 100	> 100	13.9	66.4	2.22	33.9	32.3	> 100	> 100	> 100	26.6	28.4
COC1=CC(C)C2C[C@H]3O[C@H](O)C[C@H]4C(C)C(=O)C(O)C([C@@]2(C)C1=O)[C@@]34C (stereo not given in full)	–	–	> 100	> 100	> 100	–	> 100	–	> 100	–	–	–	–	–	–	–	–	–
CC(=O)Oc1cc2c(=O)oc3c(OC(C)=O)c(OC(C)=O)c(OC(C)=O)c4c(=O)oc(c1OC(C)=O)c2c34	–	> 100	> 100	> 100	> 100	–	32.6	> 100	> 100	–	–	–	–	–	–	–	–	–
COc1ccc(C2c3cc4c(cc3OC(O)(CO)C2C(=O)O)OCO4)c(OC)c1OC (stereo not given) (tested in a mixture with another compound)	–	–	> 100	> 100	> 100	–	> 100	> 100	> 100	–	–	–	–	–	–	–	–	–
O=C(Nc1ccc(N=Nc2ccccc2)cc1)Sc1ccccc1C(=O)O	–	> 100	> 100	> 100	> 100	–	> 100	> 100	> 100	–	–	–	–	–	–	–	–	–
Cc1ccc(C2=NN(C)COC2C(F)(F)F)cc1 (stereo not given)	–	> 100	> 100	> 100	> 100	–	–	> 100	> 100	–	–	–	–	–	–	–	–	–
CC1CC(C)C(=O)C(C(=O)CC2CC(=O)NC2=O)C1 (stereo not given)	–	> 100	> 100	> 100	> 100	–	> 100	> 100	> 100	–	–	–	–	–	–	–	–	–
O=C(CC1(O)C(=O)Nc2ccccc21)c1ccc(O)cc1O (stereo not given)	–	> 100	> 100	> 100	> 100	–	> 100	–	> 100	–	–	–	–	–	–	–	–	–
C/C=C/CP(=O)(c1ccccc1)c1ccccc1	–	> 100	> 100	> 100	> 100	–	> 100	> 100	> 100	–	–	–	–	–	–	–	–	–
